{
  "source": "ChEMBL document CHEMBL4622963",
  "about": "“Optimization of Nicotinamides as Potent and Selective IRAK4 Inhibitors with Efficacy in a Murine Model of Psoriasis” (ACS Med Chem Lett, 2020)",
  "key": {"[1]": {"molecular_target": "T1, Interleukin-1 receptor-associated kinase 4 (Homo sapiens, UniProt Q9NWZ3)", "T1 sequence (Q9NWZ3 whole entry)": "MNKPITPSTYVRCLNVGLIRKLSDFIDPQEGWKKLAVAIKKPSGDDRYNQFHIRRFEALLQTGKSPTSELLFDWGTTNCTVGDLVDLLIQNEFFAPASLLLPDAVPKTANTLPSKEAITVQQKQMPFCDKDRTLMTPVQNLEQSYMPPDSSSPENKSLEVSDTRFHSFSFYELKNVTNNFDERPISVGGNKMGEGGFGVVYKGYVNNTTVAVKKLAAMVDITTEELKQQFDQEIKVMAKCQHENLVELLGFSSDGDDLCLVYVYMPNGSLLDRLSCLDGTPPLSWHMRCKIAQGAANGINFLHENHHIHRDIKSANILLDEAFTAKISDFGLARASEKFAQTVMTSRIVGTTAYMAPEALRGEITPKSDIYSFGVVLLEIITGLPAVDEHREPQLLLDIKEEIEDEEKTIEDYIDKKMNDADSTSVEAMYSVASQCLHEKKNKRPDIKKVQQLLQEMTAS", "test": "Inhibition of IRAK4 (unknown origin) using FL-IPTSPITTTYFFFKKK peptide and ATP as substrate incubated for 60 mins by fluorescence based caliper assay"}, "[2]": {"test": "Volume of distribution at steady state in mouse at 2 mg/kg, iv administered as infusion or 5 mg/kg, po via gavage measured up to 24 hrs by LC-MS analysis", "format": "ADME, organism-based", "conditions": "in vivo, read-out: Vdss"}, "Mus musculus [3]": {"species": "Mus musculus", "test": "animal or person", "conditions": "C57BL/6, po, 144 h, read-out: INH"}, "[4]": {"molecular_target": "TRAF2 and NCK-interacting protein kinase (Homo sapiens, UniProt Q9UKE5)", "sequence (Q9UKE5 whole entry, the tested form may be a part)": "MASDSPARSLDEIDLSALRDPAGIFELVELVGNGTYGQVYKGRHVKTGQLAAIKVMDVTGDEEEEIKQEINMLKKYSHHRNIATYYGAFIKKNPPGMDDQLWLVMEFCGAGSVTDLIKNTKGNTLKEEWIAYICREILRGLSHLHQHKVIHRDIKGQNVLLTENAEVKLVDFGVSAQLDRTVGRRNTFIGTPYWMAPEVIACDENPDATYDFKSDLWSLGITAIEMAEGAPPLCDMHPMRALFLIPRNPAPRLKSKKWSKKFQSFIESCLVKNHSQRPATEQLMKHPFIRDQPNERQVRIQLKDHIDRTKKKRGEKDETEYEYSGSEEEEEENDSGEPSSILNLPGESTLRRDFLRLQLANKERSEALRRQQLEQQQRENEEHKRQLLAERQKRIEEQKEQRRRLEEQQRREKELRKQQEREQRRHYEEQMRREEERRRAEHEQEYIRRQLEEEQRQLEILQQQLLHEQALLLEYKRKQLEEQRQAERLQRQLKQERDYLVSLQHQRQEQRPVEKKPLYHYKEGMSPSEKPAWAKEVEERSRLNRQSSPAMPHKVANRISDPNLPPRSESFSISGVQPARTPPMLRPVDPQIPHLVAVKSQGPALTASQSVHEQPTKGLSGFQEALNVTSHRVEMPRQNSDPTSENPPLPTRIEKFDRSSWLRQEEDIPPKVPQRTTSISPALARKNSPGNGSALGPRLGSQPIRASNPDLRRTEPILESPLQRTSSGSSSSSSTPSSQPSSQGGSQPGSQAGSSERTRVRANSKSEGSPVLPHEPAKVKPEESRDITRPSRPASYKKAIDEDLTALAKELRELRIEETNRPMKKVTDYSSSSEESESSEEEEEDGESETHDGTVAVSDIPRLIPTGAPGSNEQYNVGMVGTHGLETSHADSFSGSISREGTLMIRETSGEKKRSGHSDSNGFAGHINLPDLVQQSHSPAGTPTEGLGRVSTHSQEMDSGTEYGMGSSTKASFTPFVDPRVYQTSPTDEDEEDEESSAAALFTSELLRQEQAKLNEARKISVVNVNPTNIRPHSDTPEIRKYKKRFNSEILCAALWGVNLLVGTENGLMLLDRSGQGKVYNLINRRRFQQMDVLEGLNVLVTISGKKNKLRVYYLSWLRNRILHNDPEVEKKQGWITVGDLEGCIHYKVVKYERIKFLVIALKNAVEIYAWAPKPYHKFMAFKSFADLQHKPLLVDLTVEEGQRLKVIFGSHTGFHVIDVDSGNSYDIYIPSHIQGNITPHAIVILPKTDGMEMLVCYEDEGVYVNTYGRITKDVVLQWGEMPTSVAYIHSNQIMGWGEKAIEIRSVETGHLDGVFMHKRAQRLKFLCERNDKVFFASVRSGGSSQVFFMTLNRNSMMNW", "test": "Inhibition of human wild type partial length TNIK (D4-K311 residues) expressed in bacterial expression system"}, "[5]": {"molecular_target": "Mast/stem cell growth factor receptor Kit (Homo sapiens, UniProt P10721)", "sequence (P10721 whole entry)": "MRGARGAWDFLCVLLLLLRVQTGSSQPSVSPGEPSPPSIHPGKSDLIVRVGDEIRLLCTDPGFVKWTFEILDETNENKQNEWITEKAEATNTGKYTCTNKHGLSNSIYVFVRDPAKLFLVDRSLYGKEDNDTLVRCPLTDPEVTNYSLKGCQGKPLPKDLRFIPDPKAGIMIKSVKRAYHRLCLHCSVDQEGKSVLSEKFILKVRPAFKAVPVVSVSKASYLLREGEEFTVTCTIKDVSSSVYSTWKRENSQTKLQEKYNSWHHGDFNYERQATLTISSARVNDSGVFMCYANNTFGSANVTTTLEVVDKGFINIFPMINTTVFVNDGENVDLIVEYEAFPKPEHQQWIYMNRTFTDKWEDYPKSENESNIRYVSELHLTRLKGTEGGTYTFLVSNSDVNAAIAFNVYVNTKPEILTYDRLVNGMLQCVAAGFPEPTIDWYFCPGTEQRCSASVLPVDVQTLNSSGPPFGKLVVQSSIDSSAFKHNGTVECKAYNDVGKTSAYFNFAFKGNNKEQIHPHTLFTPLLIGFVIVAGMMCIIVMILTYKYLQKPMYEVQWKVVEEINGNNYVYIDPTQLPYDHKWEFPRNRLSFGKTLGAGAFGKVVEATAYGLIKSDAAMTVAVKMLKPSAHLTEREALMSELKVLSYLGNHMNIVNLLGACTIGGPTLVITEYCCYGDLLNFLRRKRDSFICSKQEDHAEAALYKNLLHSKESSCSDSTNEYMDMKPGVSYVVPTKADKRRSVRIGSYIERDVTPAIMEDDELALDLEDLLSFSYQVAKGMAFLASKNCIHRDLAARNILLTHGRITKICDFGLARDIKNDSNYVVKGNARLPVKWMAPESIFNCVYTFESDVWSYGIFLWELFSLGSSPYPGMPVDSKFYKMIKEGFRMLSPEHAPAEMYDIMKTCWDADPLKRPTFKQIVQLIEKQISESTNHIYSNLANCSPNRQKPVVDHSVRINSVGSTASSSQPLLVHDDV", "test": "Inhibition of recombinant N-terminal GST-tagged human cKit (544 to end residues) expressed in baculovirus infected Sf21 cells"}, "[6]": {"test": "Half life in mouse at 2 mg/kg, iv administered as infusion or 5 mg/kg, po via gavage measured up to 24 hrs by LC-MS analysis", "format": "ADME, organism-based", "conditions": "in vivo"}, "[7]": {"molecular_target": "T2, Interleukin-1 receptor-associated kinase 4 (Mus musculus) (UniProt Q8R4K2)", "T2 sequence (whole entry)": "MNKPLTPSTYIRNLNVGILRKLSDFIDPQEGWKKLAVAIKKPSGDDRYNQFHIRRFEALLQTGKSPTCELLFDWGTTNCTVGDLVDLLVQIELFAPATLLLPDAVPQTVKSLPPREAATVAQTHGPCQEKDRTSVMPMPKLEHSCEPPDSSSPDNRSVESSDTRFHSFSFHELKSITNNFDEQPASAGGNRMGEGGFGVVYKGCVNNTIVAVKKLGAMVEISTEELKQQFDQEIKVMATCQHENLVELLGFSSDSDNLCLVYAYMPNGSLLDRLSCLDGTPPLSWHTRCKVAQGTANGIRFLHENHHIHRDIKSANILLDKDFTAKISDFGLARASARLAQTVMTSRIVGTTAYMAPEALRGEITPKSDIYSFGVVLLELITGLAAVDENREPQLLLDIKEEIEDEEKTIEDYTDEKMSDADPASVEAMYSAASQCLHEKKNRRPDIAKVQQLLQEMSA", "test": "In vivo Inhibition of IRAK4 in LTA-treated BALB/c mouse assessed as suppression of IL-6 level in serum at 0.3 mg/kg by ELISA relative to control", "format": "functional, organism-based"}, "[8]": {"test": "Stability in human liver microsomes assessed as parent compound remaining", "format": "ADME, Microsome"}, "[9]": {"test": "AUC in mouse at 2 mg/kg, iv administered as infusion measured up to 24 hrs by LC-MS analysis", "format": "ADME, organism-based", "design": "time < 24 hr, dose 2 mg/kg, route intravenous", "conditions": "in vivo"}, "[10]": {"test": "Oral bioavailability in mouse at 5 mg/kg administered via gavage measured up to 24 hrs by LC-MS analysis", "format": "ADME, organism-based", "conditions": "in vivo"}, "[11]": {"test": "Drug uptake in imiquimod-induced C57BL/6 mouse model of psoriasis at 1 mg/kg, po dosed via gavage twice daily and measured after 8 hrs by LC-MS analysis", "format": "ADME, organism-based", "conditions": "in vivo, read-out: Drug uptake"}, "[12]": {"test": "Stability in mouse liver microsomes assessed as parent compound remaining measured after 10 mins", "format": "ADME, Microsome", "conditions": "read-out: Stability"}, "[13]": {"molecular_target": "T2, Interleukin-1 receptor-associated kinase 4 (Mus musculus)", "test": "In vivo Inhibition of IRAK4 in LTA-treated BALB/c mouse assessed as suppression of IL-6 level in serum at 1 mg/kg by ELISA relative to control", "format": "functional, organism-based"}, "[14]": {"molecular_target": "T2, Interleukin-1 receptor-associated kinase 4 (Mus musculus)", "test": "In vivo Inhibition of IRAK4 in LTA-treated BALB/c mouse assessed as suppression of IL-6 level in serum at 10 mg/kg by ELISA relative to control", "format": "functional, organism-based"}, "[15]": {"test": "Permeability across apical to basolateral side in human Caco2 cells", "conditions": "Caco-2"}, "[16]": {"molecular_target": "T1, Interleukin-1 receptor-associated kinase 4", "test": "Inhibition of IRAK4 in human whole blood assessed as inhibition of LTA-induced IL-6 production preincubated for 30 mins followed by LTA-stimulation and measured after 5 hrs by ELISA", "format": "tissue-based"}, "Mus musculus [17]": {"species": "Mus musculus", "test": "animal or person", "conditions": "C57BL/6, po, 144 h, read-out: INH", "remark": "listed apart in the source"}, "[18]": {"test": "Drug uptake in imiquimod-induced C57BL/6 mouse model of psoriasis at 10 mg/kg, po dosed via gavage twice daily and measured after 8 hrs by LC-MS analysis", "format": "ADME, organism-based", "conditions": "in vivo, read-out: Drug uptake"}, "[19]": {"molecular_target": "Tyrosine-protein kinase Lck (Homo sapiens, UniProt P06239)", "sequence (P06239 whole entry)": "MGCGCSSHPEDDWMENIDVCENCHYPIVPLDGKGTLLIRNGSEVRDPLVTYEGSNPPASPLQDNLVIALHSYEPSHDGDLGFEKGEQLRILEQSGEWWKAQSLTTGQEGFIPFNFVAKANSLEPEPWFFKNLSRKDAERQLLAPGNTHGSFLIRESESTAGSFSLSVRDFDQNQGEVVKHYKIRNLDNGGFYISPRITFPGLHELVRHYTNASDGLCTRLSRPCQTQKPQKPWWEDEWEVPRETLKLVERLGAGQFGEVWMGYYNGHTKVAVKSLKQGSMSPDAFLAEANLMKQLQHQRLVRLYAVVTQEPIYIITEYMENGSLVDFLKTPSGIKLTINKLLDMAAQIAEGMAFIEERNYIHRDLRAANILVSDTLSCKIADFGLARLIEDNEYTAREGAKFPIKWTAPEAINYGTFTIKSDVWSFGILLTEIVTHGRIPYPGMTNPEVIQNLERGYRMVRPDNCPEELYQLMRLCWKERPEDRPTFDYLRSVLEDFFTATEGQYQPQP", "test": "Inhibition of N-terminal His6-tagged human full length recombinant LCK expressed in baculovirus infected Sf21 cells"}, "[20]": {"test": "AUC in mouse at 5 mg/kg, po via gavage measured up to 24 hrs by LC-MS analysis", "format": "ADME, organism-based", "design": "time < 24 hr, dose 5 mg/kg, route oral", "conditions": "in vivo"}, "[21]": {"test": "Drug uptake in imiquimod-induced C57BL/6 mouse model of psoriasis at 10 mg/kg, po dosed via gavage twice daily and measured after 2 hrs by LC-MS analysis", "format": "ADME, organism-based", "conditions": "in vivo, read-out: Drug uptake"}, "[22]": {"test": "Toxicity in po dosed imiquimod-induced C57BL/6 mouse model of psoriasis assessed as drug tolerability", "format": "organism-based", "conditions": "in vivo"}, "Mus musculus [23]": {"species": "Mus musculus", "test": "animal or person", "conditions": "C57BL/6, po, 144 h, read-out: INH", "remark": "listed apart in the source"}, "Mus musculus [24]": {"species": "Mus musculus", "test": "animal or person", "conditions": "C57BL/6, po, 144 h, read-out: INH", "remark": "listed apart in the source"}},
  "data": [
    {"smiles": "CC(C)Nc1cc(Nc2nc3ccnn3cc2F)ncc1C(=O)NC[C@@H](F)C(C)(C)O", "values": [
      {"measurement": "IC50", "setting": "[1]", "value": 0.0034, "unit": "µM"},
      {"measurement": "Vd", "setting": "[2]", "value": 2, "unit": "L/kg"},
      {"measurement": "inhibition in vivo at 10 mg/kg", "setting": "Mus musculus [3]", "value": 64, "unit": "%"},
      {"measurement": "IC50", "setting": "[4]", "value": 0.13, "unit": "µM"},
      {"measurement": "IC50", "setting": "[5]", "value": "> 2", "unit": "µM"},
      {"measurement": "half-life", "setting": "[6]", "value": 1.4, "unit": "h"},
      {"measurement": "inhibition", "setting": "[7]", "value": 72, "unit": "%"},
      {"measurement": "Stability", "setting": "[8]", "value": 93, "unit": "%"},
      {"measurement": "AUC at 24 h", "setting": "[9]", "value": 5, "unit": "µM·h"},
      {"measurement": "bioavailability", "setting": "[10]", "value": "> 100", "unit": "%"},
      {"measurement": "concentration at 8 h", "setting": "[11]", "value": 12, "unit": "nM"},
      {"measurement": "remaining at 10 min", "setting": "[12]", "value": 89, "unit": "%"},
      {"measurement": "inhibition", "setting": "[13]", "value": 68, "unit": "%"},
      {"measurement": "inhibition", "setting": "[14]", "value": 93, "unit": "%"},
      {"measurement": "Papp A→B", "setting": "[15]", "value": 21.5, "unit": "×10⁻⁶ cm/s"},
      {"measurement": "IC50", "setting": "[16]", "value": 0.92, "unit": "µM"},
      {"measurement": "inhibition in vivo at 1 mg/kg", "setting": "Mus musculus [17]", "value": 27, "unit": "%"},
      {"measurement": "concentration at 8 h", "setting": "[18]", "value": 494, "unit": "nM"},
      {"measurement": "IC50", "setting": "[19]", "value": "> 2", "unit": "µM"},
      {"measurement": "AUC at 24 h", "setting": "[20]", "value": 2.4, "unit": "µM·h"},
      {"measurement": "concentration at 2 h", "setting": "[21]", "value": 9400, "unit": "nM"},
      {"measurement": "Activity", "setting": "[22]", "value": "Non-Toxic"},
      {"measurement": "inhibition in vivo at 3 mg/kg", "setting": "Mus musculus [23]", "value": 30, "unit": "%"},
      {"measurement": "inhibition in vivo at 1 mg/kg", "setting": "Mus musculus [24]", "value": 17, "unit": "%"}
    ]}
  ]
}
